Assay [1] has as its system iNOS. Briefly: % inhibition of iNOS at 100 μM. The format is biochemical. The method, then: (§1) Citrulline Assay for Nitric Oxide Synthase Nitric oxide synthase activity was measured by monitoring the conversion of L-[2,3-3H]-arginine to L-[2,3-3H]-citrulline (1,2). Human inducible NOS (hiNOS), human endothelial constitutive NOS (hecNOS) and human neuronal constitutive NOS (hncNOS) were each cloned from RNA extracted from human tissue. The recombinant enzymes were expressed in insect cells using a baculovirus vector. Enzyme activity was isolated from cell extracts and partially purified by DEAE-Sepharose chromatography (2). Mouse inducible NOS (miNOS) was prepared from an extract of LPS-treated mouse RAW 264.7 cells and rat brain constitutive NOS (rcNOS) was prepared from an extract of rat cerebellum. Both preparations were partially purified by DEAE-Sepharose chromatography (2). Enzyme and inhibitors were added to give a volume of 50 μL in 50 mM Tris (pH 7.6) and the reaction initiated by the addition of 50 μL of a solution containing 50 mM Tris (pH 7.6), 2.0 mg/mL bovine serum albumin, 2.0 mM DTT, 4.0 mM CaCl2, 20 μM FAD, 100 μM tetrahydrobiopterin, 0.4-2.0 mM NADPH and 60 μM L-arginine containing 0.9 μCi of L-[2,3-3H]-arginine. For constitutive NOS, calmodulin was included at a final concentration of 40-100 nM. Following incubation at 37° C. for 15 minutes, the reaction was terminated by addition of 300 μL cold buffer containing 10 mM EGTA, 100 mM HEPES (pH5.5) and 1.0 mM L-citrulline. The [3H]-citrulline was separated by chromatography on Dowex 50W X-8 cation exchange resin and radioactivity quantified with a liquid scintillation counter.

In assay [2] the target is T1, RAW cell i-NOS (Mus musculus, UniProt P29477).
T1 construct: grown overnight (17 h) in the presence of LPS to induce NOS; endogenous in cells; host or cells: RAW 264.7 cells, LPS-induced
Briefly: Raw Cell Nitrite Assay. Conditions: RAW 264.7 cells, LPS induced, L-arginine 30 μM. The assay is classed as cell-based. The method, then:
RAW 264.7 cells are plated to confluency on a 96-well tissue culture plate grown overnight (17 h) in the presence of LPS to induce NOS. A row of 3-6 wells are left untreated and served as controls for subtraction of nonspecific background. The media is removed from each well and the cells are washed twice with Krebs-Ringers-Hepes (25 mM, pH 7.4) with 2 mg/ml glucose. The cells are then placed on ice and incubated with 50 μL of buffer containing L-arginine (30 μM) +/-inhibitors for 1 h. The assay is initiated by warming the plate to 37° C. in a water bath for 1 h. Production of nitrite by intracellular iNOS is linear with time. To terminate the cellular assay, the plate of cells is placed on ice and the nitrite-containing buffer removed and analyzed for nitrite using a previously published fluorescent determination for nitrite. All values are the average of triplicate wells and are compared to a background-subtracted induced set of cells (100% value).

The target in assay [3] is T2, Human inducible NOS (hiNOS) (Homo sapiens, UniProt P35228).
T2 construct: made in house; host or cells: insect cells, baculovirus vector
Briefly: Citrulline Assay for Nitric Oxide Synthase, hiNOS. The format is biochemical. As to the method: (§2) Citrulline Assay for Nitric Oxide Synthase
as §1, with “Nitric” for “Citrulline Assay for Nitric Oxide Synthase Nitric”

The target of assay [4] is T3, human neuronal constitutive NOS (hncNOS) (Homo sapiens, UniProt P29475).
T3 construct: made in house; host or cells: insect cells, baculovirus vector
Nature of the assay: Citrulline Assay for Nitric Oxide Synthase, hncNOS. The format is biochemical. As to the method:
as §2
as §1, with “Nitric” for “Citrulline Assay for Nitric Oxide Synthase Nitric”

Assay [5] has as its target T4, human endothelial constitutive NOS (hecNOS) (Homo sapiens, UniProt P29474).
T4 construct: made in house; host or cells: insect cells, baculovirus vector
Briefly: Citrulline Assay for Nitric Oxide Synthase, hecNOS. The format is biochemical. As to the method: as §2
as §1, with “Nitric” for “Citrulline Assay for Nitric Oxide Synthase Nitric”

The test system of assay [6] is constitutive and the inducible NO synthase. The following applies: constitutive vs inducible NO synthase; cited from earlier work.

Structures can show the parent of a compound that is named as a salt.

On to `CC(=N)NCCCC[C@H](N)C(O)CO` (single isomer, unassigned) [Example 3A, N-(5S-amino-6,7-dihydroxyheptyl)ethanimidamide, dihydrochloride], for which, in assay [1], the “% inhibiton iNOS at 100 μM” value is recorded as 53.4%.

As for `CC(=N)NCCCC[C@H](N)C(O)CO` (single isomer, unassigned) [Example 3B, N-(5S-amino-6,7-dihydroxyheptyl)ethanimidamide, dihydrochloride], the figures for the IC50 in assay [2], in assay [3] and in assay [4] were 80 µM, 12.3 µM and 150 µM, respectively. On to `CC(=N)NCCCC[C@H](N)C(O)c1ccccc1` (single isomer, unassigned) [Example 11A, α-[1-amino-5-[(1-iminoethyl)amino]pentyl]benzenemethanol hydrochloride dihydrate], for which, in assay [1], the “% inhibiton iNOS at 100 μM (symbol)” value is on record as “* (At 100 μM dose, response was not seen.)”. Regarding `CC(=N)NCCCC[C@H](N)C(O)c1ccccc1` (single isomer, unassigned) [Example 11B, α-[1-amino-5-[(1-iminoethyl)amino]pentyl]benzenemethanol hydrochloride dihydrate], the “% inhibiton iNOS at 100 μM” value in assay [1] was 4.6%. `CC(=N)NCCCC[C@H](N)C(C)(O)CO` (single isomer, unassigned) [Example 15A, N-(5S-amino-6,7-dihydroxy-6-methylheptyl)ethanimidamide, hydrochloride dihydrate]: the IC50 (commonly the point on the concentration scale where inhibition reaches its midpoint) in assay [2] was determined as 57.3 µM; in assay [3], 9.3 µM; in assay [5], 2.35 mM; in assay [4] it was 99.6 µM. On to `CC(=N)NCCCC[C@H](N)C(C)(O)CO` (single isomer, unassigned) [Example 15B, N-(5S-amino-6,7-dihydroxy-6-methylheptyl)ethanimidamide, hydrochloride dihydrate], for which the IC50 turned out to be 187 µM in assay [3], 6.59 mM in assay [5] and 441 µM in assay [4].

For the compound `CC(=N)NCCCC[C@H](N)C(O)C(C)O` (single isomer, unassigned) [Example 16B, N-(5S-amino-6,7-dihydroxyoctyl) ethanimidamide, dihydrochloride hydrate], the IC50 in assay [2] was > 100 µM; in assay [3] it was 76.8 µM; in assay [5], 5.43 mM; in assay [4] it was 670 µM. For the compound `CC(=N)NCCCC[C@H](N)C(C)O` (single isomer, unassigned) [Example 40A, N-(5S-amino-6-hydroxyheptyl)ethanimidamide, dihydrochloride dihydrate], the “% inhibiton iNOS at 100 μM” value in assay [1] worked out at 32.6%. As for `CC(=N)NCCCC[C@H](N)CC(=O)O` [Example 1, 3S-amino-7-[(1-iminoethyl)amino]heptanoic Acid], the IC50 in assay [2] was determined as 300 µM; in assay [3], 61 µM; in assay [5], 1.99 mM; in assay [4] it was 898 µM. For `CCOC(=O)C[C@@H](N)CCCCNC(C)=N` [Example 1d, Ethyl 3S-amino-7-[(1-iminoethyl)amino]heptanoate], the “% inhibiton iNOS at 100 μM” value in assay [1] is 35%. For `CC(=N)NCCC[C@H](N)CC(=O)O` [Example 2, 3S-amino-6-[(1-iminoethyl)amino]hexanoic Acid], the “% inhibiton iNOS at 100 μM (symbol)” value in assay [1] was “* (At 100 μM dose, response was not seen.)”.

As for `CCOC(=O)C[C@@H](N)CCCNC(C)=N` [Example 2d], in assay [1], the “% inhibiton iNOS at 100 μM” value worked out at 5%.

With `CC(=N)NCCCC(C)N` (stereo not drawn) [Example 4, Ni-(1-iminoethyl)-1,4-pentanediamine, dihydrochloride], the “% inhibiton iNOS at 100 μM” value in assay [1] is listed as 33%. As to `CCC(N)CCCCNC(C)=N` (stereo not drawn) [Example 5, N1-(1-iminoethyl) -1,5-heptanediamine], the “% inhibiton iNOS at 100 μM” value in assay [1] was found to be 27%. Consider `CC(=N)Nc1ccc(C(N)CC(=O)O)cc1.Cl.Cl.O` (stereo not drawn) [Example 10, β-amino-4-[(1-iminoethyl)amino]benzenepropanoic acid, dihydrochloride hydrate], for which the “% inhibiton iNOS at 100 μM” value in assay [1] turned out to be 3.4%. As to `COC(=O)CC(N)c1ccc(NC(C)=N)cc1` (stereo not drawn) [Example 10f], the “% inhibiton iNOS at 100 μM” value in assay [1] is given as 7.7%. For the compound `CC(=N)NCCCC[C@H](N)C(=O)c1cccs1` [Example 12, N-[5S-amino-6-oxo-6-(2-thienyl)hexyl]ethanimidamide, hydrate], the “% inhibiton iNOS at 100 μM (symbol)” value in assay [1] is “* (At 100 μM dose, response was not seen.)”. On the same count and under the same terms, in the case of `CC(=N)NCCCC[C@H](N)C(C)=O` [Example 14, N-(5S-amino-6-oxoheptyl)ethanimidamide, dihydrochloride] it was “* (At 100 μM dose, response was not seen.)”. Turning to `CC(=N)NCCCC[C@H](N)C(COC(C)=O)OC(C)=O` (stereo partly drawn) [Example 18, N-(6,7-diacetyloxy-5S-aminoheptyl)ethanimidamide, hydrochloride monohydrate], the “% inhibiton iNOS at 100 μM” value in assay [1] came out at 7%.

For `CC(=N)NCCCC[C@H](N)C(O)COC(C)=O` (stereo partly drawn) [Example 19, N-(5S-amino-6-hydroxy-7-acetoxyheptyl)ethanimidamide, hydrochloride monohydrate], the “% inhibiton iNOS at 100 μM” value in assay [1] worked out at 54%. For `CC(=N)NCCCC[C@H](N)C(C)O` (stereo partly drawn) [Example 40B, N-(5S-amino-6-hydroxyheptyl)ethanimidamide, dihydrochloride dihydrate], the “% inhibiton iNOS at 100 μM” value in assay [1] amounted to 14.5%. As to `CC(=N)NCCCC[C@H](N)c1nnn[nH]1` [Example 41, N-[5S-amino-5-(1H-tetrazol-5-yl)pentyl]ethanimidamide, dihydrochloride], the “% inhibiton iNOS at 100 μM” value in assay [1] is 28.5%. Same read-out and setting: in the case of `CC(=N)NCCCC[C@H](N)CO` [Example 48, N-(5S-amino-6-hydroxyhexyl)ethanimidamide] it was 40.6%; in that of `CC(=N)NCCCC[C@H](N)c1ncc(C)o1` [Example 49, N-[5-amino-5-(5-methyloxazol-2-yl)pentyl]ethanimidamide, hydrochloride hydrate], 19.4%. Same read-out and setting: in the case of `CC(=N)NCCCC[C@H](N)C(=O)NO` [Example 50, 2S-amino-N-hydroxy-6-[(1-iminoethyl)amino]hexanamide, hydrochloride] it was 40.6%. As to `CNC(=N)NCCC[C@H](N)C(=O)O` [L-NMMA, L-N-monomethyl-arginine], in assay [6], the “selectivity as NO synthase inhibitor” value is “non-selective”.

The record behind these values is US6143790A, “L-N^6 -(1-iminoethyl)lysine derivatives useful as nitric oxide synthase inhibitors” (G.D. Searle & Co., priority 1996, dated 2000).
